Patent US10870638B2, “Pyridazinone compound or its salt, and herbicide containing it” (ISHIHARA SANGYO KAISHA, LTD., priority 2016, dated 2020)

Experiments:
Assay in all cases: Test Example 1: foliar treatment, growth inhibition rate on 14th day
Type in all cases: in vivo
Conditions in all cases: active ingredient amount 31 g/ha, 14th day after application
[1] = tested on: barnyardgrass (Echinochloa crus-qalli L.)
How it was run: (§1)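 Visual 0–100% inhibition scoring (100 = complete kill) at 14 days after foliar treatment of soil-grown seedlings at species-specific leaf stages, with the compound sprayed as a wettable powder or emulsifiable concentrate dilution.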

[2] = tested on: corn (Zea mays L.)
How it was run: as §1

[3] = tested on: crabgrass (Digitaria sanquinalis L.)
How it was run: as §1

[4] = tested on: green foxtail (Setaria viridis L.)
How it was run: (§2)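 Plants in upland soil were sprayed on the foliage at early leaf stages (wild oat 0.4–1.2, rice 0.2–2.7, green foxtail 0.5–3.2, soybean primary leaf) with wettable powder or emulsifiable concentrate formulations. Spray volume was 1,000 L/ha water containing 0.1 vol% spreader, at prescribed active-ingredient rates. Growth inhibition (0 = untreated, 100 = complete kill) was scored visually on day 14.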

[5] = tested on: italian ryegrass (Lolium multiflorum Lam.)
How it was run: as §1

[6] = tested on: redroot pigweed (Amaranthus retroflexus L.)
How it was run: as §1

[7] = tested on: rice (Oryza sativa L.)
How it was run: as §2

[8] = tested on: soybean (Glycine max Merr.)
How it was run: as §2

[9] = tested on: wheat (Triticum aestivum L.)
How it was run: as §1

[10] = tested on: wild oat (Avena fatua L.)
How it was run: as §2

[11] = visual, 0 = non-treated, 100 = complete kill

Structure (SMILES) | Growth inhibition rate (%) Barnyardgrass [1] | Growth inhibition rate (%) Corn [2] | Growth inhibition rate (%) Crabgrass [3] | Growth inhibition rate (%) Green foxtail [4] | Growth inhibition rate (%) Italian ryegrass [5] | Growth inhibition rate (%) Redroot pigweed [6] | Growth inhibition rate (%) Rice [7] | Growth inhibition rate (%) Soybean [8] | Growth inhibition rate (%) Wheat [9] | Growth inhibition rate (%) Wild oat [10] | Growth inhibition rate (%) Barnyardgrass [1, 11] | Growth inhibition rate (%) Corn [2, 11] | Growth inhibition rate (%) Crabgrass [3, 11] | Growth inhibition rate (%) Green foxtail [4, 11] | Growth inhibition rate (%) Italian ryegrass [5, 11] | Growth inhibition rate (%) Redroot pigweed [6, 11] | Growth inhibition rate (%) Rice [7, 11] | Growth inhibition rate (%) Soybean [8, 11] | Growth inhibition rate (%) Wheat [9, 11] | Growth inhibition rate (%) Wild oat [10, 11]
Cc1ccc(Oc2ccc3nc(Cl)cn3n2)cc1-c1c(O)c(C)nn(C)c1=O [Compound 2-193] | 70% | 65% | 90% | 93% | 0% | 0% | 0% | 0% | 0% | 0% |  |  |  |  |  |  |  |  |  | 
CCOC(=O)Oc1c(C)nn(C)c(=O)c1-c1cc(Oc2cnc3cc(Cl)ccc3n2)ccc1C [Compound 3-35] | 100% | 60% | 99% | 99% | 99% | 10% | 95% | 25% | 100% | 100% |  |  |  |  |  |  |  |  |  | 
CCCCC(=O)Oc1c(C)nn(C)c(=O)c1-c1cc(Oc2cnc3cc(Cl)ccc3n2)ccc1C [Compound 3-36] | 100% | 40% | 99% | 99% | 99% | 0% | 90% | 40% | 99% | 99% |  |  |  |  |  |  |  |  |  | 
Cc1ccc(Oc2cnc3cc(Cl)ccc3n2)cc1-c1c(OC(=O)C2CC2)c(C)nn(C)c1=O [Compound 3-37] | 100% | 45% | 99% | 100% | 99% | 10% | 95% | 30% | 99% | 98% |  |  |  |  |  |  |  |  |  | 
Cc1ccc(Oc2cnc3cc(Cl)ccc3n2)cc1-c1c(OC(=O)c2ccccc2)c(C)nn(C)c1=O [Compound 3-38] | 100% | 30% | 100% | 100% | 99% | 20% | 80% | 25% | 98% | 98% |  |  |  |  |  |  |  |  |  | 
Cc1ccc(Oc2cnc3cc(Cl)ccc3n2)cc1-c1c(OC(=O)N2CCOCC2)c(C)nn(C)c1=O [Compound 3-39] | 88% | 15% | 0% | 95% | 0% | 0% | 0% | 0% | 0% | 0% |  |  |  |  |  |  |  |  |  | 
Cc1ccc(Oc2cnc3cc(Cl)ccc3n2)cc1-c1c(OCc2ccccc2)c(C)nn(C)c1=O [Compound 3-41] | 100% | 20% | 95% | 99% | 99% | 20% | 10% | 0% | 99% | 98% |  |  |  |  |  |  |  |  |  | 
Cc1ccc(Oc2cnc3cc(Cl)ccc3n2)cc1-c1c(OC(=O)C(C)(C)C)c(C)nn(C)c1=O [Compound 3-42] | 100% | 30% | 20% | 98% | 95% | 10% | 60% | 0% | 20% | 100% |  |  |  |  |  |  |  |  |  | 
Cc1ccc(Oc2cnc3cc(Cl)ccc3n2)cc1-c1c(OC(=O)c2cn(C)nc2C)c(C)nn(C)c1=O [Compound 3-43] | 100% | 40% | 98% | 100% | 98% | 0% | 80% | 10% | 95% | 98% |  |  |  |  |  |  |  |  |  | 
COC(=O)OC(C)Oc1c(C)nn(C)c(=O)c1-c1cc(Oc2cnc3cc(Cl)ccc3n2)ccc1C (centres unmarked) [Compound 3-44] | 100% | 20% | 99% | 100% | 98% | 0% | 85% | 10% | 85% | 100% |  |  |  |  |  |  |  |  |  | 
COC(=O)CCC(=O)Oc1c(C)nn(C)c(=O)c1-c1cc(Oc2cnc3cc(Cl)ccc3n2)ccc1C [Compound 3-46] |  |  |  |  |  |  |  |  |  |  | 100% | 50% | 99% | 100% | 100% | 20% | 98% | 35% | 98% | 100%
Cc1ccc(Oc2cnc3cc(Cl)ccc3n2)cc1-c1c(OC(=O)Cc2ccccc2)c(C)nn(C)c1=O [Compound 3-47] |  |  |  |  |  |  |  |  |  |  | 100% | 40% | 99% | 100% | 99% | 0% | 30% | 20% | 98% | 99%
Cc1ccc(Oc2cnc3cc(Cl)ccc3n2)cc1-c1c(OC(=O)CC(C)(C)C)c(C)nn(C)c1=O [Compound 3-53] |  |  |  |  |  |  |  |  |  |  | 100% | 0% | 93% | 95% | 65% | 0% | 40% | 0% | 0% | 60%
CCCSC(=O)Oc1c(C)nn(C)c(=O)c1-c1cc(Oc2cnc3cc(Cl)ccc3n2)ccc1C [Compound 3-56] |  |  |  |  |  |  |  |  |  |  | 98% | 40% | 99% | 100% | 98% | 0% | 0% | 30% | 93% | 99%
